Experimental data taken from patent US10709132B2, “Microbicidal composition” (DDP SPECIALTY ELECTRONIC MATERIALAS US, INC., priority 2015, dated 2020).
Like-named read-outs stand apart in the source and are kept apart here.

Assays:
Format in all cases: cell-based
[1] = test system: Staphylococcus aureus ATCC #6538; assay: Synergy test by MIC in 96 well microtiter plates, gram positive bacteria; conditions: ATCC6538, S. aureus, 30° C., 10% tryptic soy broth, read-out: MIC of compound acting alone (CA / CB)
Protocol: (§1) DMO with Pine oil was evaluated for synergy by determining the synergy index (S.I.) of the combination. Incubation temperature for bacteria was 30° C. and for fungi was 25° C. Synergy index was calculated based on minimum inhibitory concentrations (MIC) of two antimicrobial compounds (CA and CB) alone and in combinations (Ca and Cb). The test organisms were gram negative bacteria (Pseudomonas aeruginosa ATCC #15442), gram positive bacteria (Staphylococcus aureus ATCC #6538), and yeast (Candida albicans ATCC #10231) and mold (Aspergillus brasiliensis ATCC #16404). The test was carried out in 96 well microtiter plates. Contact time for the bacteria and yeast was 24 and 48 hours, and contact time for mold was 3 and 7 days. […] SI is calculated as follows: Ca/CA+Cb/CB=Synergy Index (“SI”) Wherein: • CA=concentration of compound A in ppm, acting alone, which produced an end point (MIC of Compound A). • Ca=concentration of compound A in ppm, in the mixture, which produced an end point. • CB=concentration of compound B in ppm, acting alone, which produced an end point (MIC of Compound B). • Cb=concentration of compound B in ppm, in the mixture, which produced an end point. When the sum of Ca/CA and Cb/CB is greater than one, antagonism is indicated. […] [table] [table] [table]

[2] = test system: Aspergillus brasiliensis ATCC #16404; assay: Synergy test by MIC in 96 well microtiter plates, mold; conditions: ATCC16404, 168 h, A. brasiliensis, contact time 7 days, 25° C., potato dextrose broth, read-out: MIC of compound acting alone (CA / CB)
Protocol: as §1

[3] = test system: Candida albicans ATCC #10231; assay: Synergy test by MIC in 96 well microtiter plates, yeast; conditions: ATCC10231, C. albicans, 25° C., potato dextrose broth, read-out: MIC of compound acting alone (CA / CB)
Protocol: as §1

CC1(C)COCN1 [DMO, 4,4-dimethyloxazolidine] showed an MIC ([1]; contact time 24 hrs) of 75 µg/mL, an MIC ([1]; contact time 48 hrs) of 75 µg/mL and an MIC [2] of 500 µg/mL. For the same compound, the MIC ([3]; contact time 24 hrs) was 1000 µg/mL and the MIC ([3]; contact time 48 hrs) was 1000 µg/mL.
